# From patent US20130324439A1, “Elastic Modulus-modified MicroEnvironment microArrays (eMEArrays) and Uses Thereof” (The Regents of the University of California, priority 2012, published 2013)
# Entries after “also recorded” stand apart in the source; their conditions may differ.
# Columns and labels:
# [1] = tested on: HER2+ breast cancer cell line HCC1569; test: EdU incorporation (DNA synthesis) of HCC1569 on 2D tissue culture plastic, PA gels of tuned elastic modulus or 3D Matrigel; settings: for Effect of inhibitor added with lapatinib on the 3D context-dependent response (EdU incorporation): 3D Matrigel versus 2D TC plastic; for Effect of inhibitor alone on EdU incorporation: TC plastic or 3D Matrigel, without lapatinib; for Effect of actinomyosin network inhibitor on the modulus-dependent lapatinib response: HCC1569 on PA gels, 1 hr w/inhibitors; for Response to lapatinib (EdU incorporation), 3D Matrigel culture versus 2D tissue culture plastic: 4 days growth then 2 days with 1.5 μM Lapatinib
# Description: (§1) The cells were grown on plastic tissue culture dishes (2D) vs. PA gels, and 3D on top, RPMI1640 with 1% FBS and 5% Matrigel 4 days growth then 2 days with 1.5 μM Lapatinib.
# (§2) We sought to determine if HER-2 drug response was different between 2D and 3D culture environment and whether that difference is due to different substrata stiffness. Cells were grown on plastic tissue culture dishes (2D), functionalized polyacrylamide cell culture (PA) gels, and in 3D (Matrigel on top, RPMI1640 with 1% FBS and 5% Matrigel 4 days growth then 2 days with 1.5 μM Lapatinib).
# We next sought to determine if the actinomyosin network plays a role in this different drug response. Cells were grown in 2D, on PA gels, and in 3D Matrigel with 2 days growth, 1 hr w/inhibitors, then 2 days with 1.5 μM lapatinib.
# To determine whether the 3D Matrigel context response was due only to the physiological modulus, we combined the actinomyosin network inhibitors together with lapatinib and compared the responses of cells in 3D to cells cultured on 2D TC plastic.
# We next sought to determine if the concentration of type I collagen affected HER-2 targeted drug response. Referring now to FIG. 14, cells were subjected to non-coated tissue culture dishes, Collagen I coated tissue coated dishes for 2 days growth, then 2 days with 1.5 μM lapatinib.
# [2] = tested on: HER2; test: Phospho-specific intracellular flow cytometry, ratio of pHER2 to total HER2 in HCC1569; assay type: cell-based; settings: for Modulus-dependent regulation of pHER2/HER2 ratio in treated cells: HCC1569, inhibitor for 24 hours on PA gels of differing compliance
# Excerpt: FIG. 13 is a graph showing by using intracellular flow cytometry to analyze the pHER2 and HER2 expression level of HCC1569, that cells on softer gel have higher pHER2/HER2 ratio and less EdU incorporation, vice versa, and then compared to the drug response. Thus stiffness can alter HER2 regulation and drug response. pHER2/HER2 ratios are altered in a modulus-dependent manner. (blue line) pHER2/HER2 ratios as determined with phosphor specific flow cytometry on HCC1569 cells cultured 4 days on different compliance substrata. (red line) Responses to lapatinib determined by EdU incorporation in HCC1569 as a function of substrate compliance
# To better understand why changing the elastic modulus of the culture substrata altered sensitivity to lapatinib on PA gels we used phospho-specific intracellular flow cytometry techniques to measure the ratio of phosphorylated HER2 (pHER2, which is considered activated) to total HER2. Cells were first fixed and stained with an antibody that recognized total HER2 on the cell surface, then the cells were permeabilized and stained for pHER2 prior to multicolor analysis on a flow cytometer.
# To determine whether the actinomyosin network is involved in regulating the modulus-dependent regulation of HER2, HCC 1569 were exposed to Blebbistatin or Y27632 for 24 hours on PA gels of differing compliance. […] Thus the actinomyosin network is likely important in modulus-dependent regulation of HER2.
# [3] = tested on: HER2- BT549 cells; test: EdU incorporation of BT549 on 2D plastic, PA gels or 3D Matrigel; assay type: cell-based; settings: PA gel and 3D, 1.5 μM Lapatinib
# Description: as §1, §2
# [4] = tested on: HER2-expressing breast cancer cell lines; settings: cited from earlier work
# [5] = tested on: HCC1569 cells; test: eMEArray drug response, EdU-pixels/nucleus-pixels of HCC1569 on printed microenvironments on PA gels
# [6] = then 2 days with 1.5 μM lapatinib
structure (smiles),measurement,setting,value
C[C@@H](N)[C@H]1CC[C@H](C(=O)Nc2ccncc2)CC1 [Y27632],Effect of inhibitor added with lapatinib on the 3D context-dependent response (EdU incorporation),[1]; HCC1569,did not alter
same,Effect of inhibitor alone on EdU incorporation,[1]; HCC1569,did not have any effect
same,Effect of actinomyosin network inhibitor on the modulus-dependent lapatinib response,[1]; [6],altered
same,Modulus-dependent regulation of pHER2/HER2 ratio in treated cells,[2],absent
CS(=O)(=O)CCNCc1ccc(-c2ccc3ncnc(Nc4ccc(OCc5cccc(F)c5)c(Cl)c4)c3c2)o1 [Lapatinib],"Response to lapatinib (EdU incorporation) on PA gels tuned to 400 Pa, compared with 3D Matrigel","[1]; HCC1569, 400 Pa PA gel crosslinked to type 1 collagen, 1.5 uM lapatinib",very similar results compared to 3D cultures; also recorded: phenocopied the response of HCC1569 grown in 3D Matrigel
same,"Response to lapatinib (EdU incorporation), 3D Matrigel culture versus 2D tissue culture plastic",[1]; HCC1569,inhibited more
same,"Response to lapatinib (EdU incorporation), 3D Matrigel culture versus 2D tissue culture plastic","[1]; HCC1569, listed as lapatinib",more sensitive
same,Influence of type I collagen concentration on lapatinib response (% EdU incorporation),"[1]; non-coated vs Collagen-I coated TC dishes or PA gels, 2 days growth, then 2 days with 1.5 μM lapatinib","does impact lapatinib response on TC dishes, but less so on low modulus gels"
same,Ratio of pHER2 to total HER2 as a function of substrate compliance,"[2]; HCC1569 on 400 Pa, 2500 Pa, 4470 Pa, 40 KPa gels or TC plastic, 1.5 uM lapatinib for 4 days",higher ratio of pHER2 to total HER2 on more compliant substrata
same,Response to lapatinib (EdU incorporation),[3],unaffected
same,Response to lapatinib (EdU incorporation),[3]; listed as lapatinib,did not respond; also recorded: insensitive
same,Responsiveness in 3D Matrigel culture compared to 2D growth,[4],less responsive
same,Response of cells on eMEArrays with elastic modulus similar to 40 kPa,[5]; 40 kPa,sensitive response
same,Response of cells on 400 kPa eMEArrays,[5]; 400 kPa,resistant response
same,Responses to lapatinib on other molecular microenvironments relative to type 1 collagen alone,"[5]; HCC1569, 1.5 μM Lapatinib for 24 hours, EdU for the final 4 hours",widely varied responses
Cc1ccc2c(c1)C(=O)C1(O)CCN(c3ccccc3)C1=N2 (stereo not shown) [Blebbistatin],Effect of actinomyosin network inhibitor on the modulus-dependent lapatinib response,[1]; [6],altered
same,Modulus-dependent regulation of pHER2/HER2 ratio in treated cells,[2],absent
O=S(=O)(c1cccc2c(I)cccc12)N1CCCNCC1 [ML-7],Effect of inhibitor added with lapatinib on the 3D context-dependent response (EdU incorporation),[1]; HCC1569,eliminated any context-driven differences
same,Effect of inhibitor alone on EdU incorporation,[1]; HCC1569,did not have any effect
same,Effect of actinomyosin network inhibitor on the modulus-dependent lapatinib response,[1]; [6],altered
same,Effect of combination with Lapatinib on cells on 2D PA gels,"[1]; combination of ML-7 with Lapatinib, 2D PA gels",synergistic response that caused massive cell death
same,Effect of lapatinib and ML-7 together on cells in 3D,"[1]; lapatinib and ML-7, 3D Matrigel",no such synergistic effect
